Tests used:
hGHSR1a^WT-RLucII = target: T1, hGHSR1a^WT-RLucII (Homo sapiens, UniProt Q92847); test: Bystander BRET endosomal trafficking (2xFYVE-Venus); format: cell-based; conditions: 60-minute post-treatment
T1 construct: expressed in transfected cells; host or cells: HEK293/T, transient
Procedure: Bystander BRET (bBRET). hGHSR1a^WT-RLucII and plasma membrane marker, MyrPalm^mVenus, or the early endosomal marker, 2×-FYVE^mVenus, was transiently co-transfected in HEK293/T cells at a ratio of 1:5 or 1:12.5, respectively. […] Plates were then read by a Mithras 940 plate reader every 5 minutes over 1 hour (MyrPalm^mVenus) or 2 hours (2×FYVE^mVenus) to determine a BRET ratios. To generate CR curves, the average net BRET over 60 minutes post-treatment was used.

hGHSR1a^D99A = target: T2, hGHSR1a^D99A (Homo sapiens, UniProt Q92847, D99A); test: Gαq dissociation (TRUPATH) and iCa2+ at D99A mutant; format: cell-based; conditions: surface expression reduced markedly
T2 construct: expressed in transfected cells; host or cells: HEK293/T, transient
Procedure: (§1) For experiments with WT and Gt KO HEK293/S cells, […] of hGHSR1a^WT, 10 μg of miAEQ, and 2.5 μg of pcDNA3.1 was transiently transfected into 10 cm dishes and incubated overnight. […] Twenty-four hours later, experiments proceeded in accordance with the procedures described above. To control for any possible kinetic differences in genetically modified cell lines or GHSR1a variants, the average ligand-induced response over 10 seconds was calculated, then normalized by dividing the L-miAeq by the L-miAeq plus the Lysis-miAeq and normalized to the appropriate control/reference condition.

GHSR1a^E197A [1] = target: T3, GHSR1a^E197A (Homo sapiens, UniProt Q92847, E197A); test: iCa2+ at E197A mutant; format: cell-based
T3 construct: expressed in transfected cells; host or cells: HEK293/T
Procedure: as §1

GHSR1a^E197A [2] = target: T3, GHSR1a^E197A; test: TRUPATH Gαq dissociation at E197A mutant; format: cell-based
GHSR1a^N305A = target: T4, GHSR1a^N305A (Homo sapiens, UniProt Q92847, N305A); test: iCa2+ at N305A mutant; format: cell-based
T4 construct: expressed in transfected cells; host or cells: HEK293/T
Procedure: as §1

GHSR1a^R199A = target: T5, GHSR1a^R199A (Homo sapiens, UniProt Q92847, R199A); test: Gαq dissociation and iCa2+ at R199A mutant; format: cell-based
T5 construct: expressed in transfected cells; host or cells: HEK293/T
Procedure: as §1

C57BL/6J mice = test: Cocaine-induced behavioral sensitization; format: in vivo, mouse; conditions: N8279 5 mg/kg IP; cocaine 20 mg/kg
Procedure: Next, cocaine-induced behavioral sensitization was assessed in male and female C57BL/6J mice following subchronic (8-day) administration of the vehicle or N8279 (5 mg/kg, IP) in the home-cage. Subsequently, mice were given the same treatments as described above, followed with an injection (IP) of vehicle or cocaine (20 mg/kg) in the open-field once per day for 5 days (FIG. 4D). A […] hiatus (washout) was imposed and behavioral sensitization was assessed the next day by giving (IP) vehicle or cocaine (challenge). […] By comparison, motor activities were stimulated acutely (day 1) to similar extents in the vehicle+cocaine and N8279+cocaine mice (FIG. 4E). […] Moreover, at challenge (day 11), locomotor activity was augmented relative to day 1 in the vehicle+cocaine mice, whereby no change in activity was evident in the N8279+cocaine mice.
Cocaine Sensitization. Male and female C57BL6/J mice (Jackson Labs, Bar Harbor, ME) were administered (IP) vehicle or N8279 (5 mg/kg) subchronically for 8 consecutive days (once/day) (FIG. 4D). Subsequently, mice were placed into the open-field (Accuscan Instruments, Columbus, OH) for 30 min, they were removed, injected (IP) with vehicle or N8279, returned to the open field for 30 min, then the mice were given (IP) vehicle or cocaine (20 mg/kg) and returned to the open-field for 120 minutes (FIG. 4D). […]

hGHSR1a^A204E [3] = target: T6, hGHSR1a^A204E (Homo sapiens, UniProt Q92847, A204E); conditions: C/R curve did not saturate
Target sequence in this assay (Q92847 whole entry A204E): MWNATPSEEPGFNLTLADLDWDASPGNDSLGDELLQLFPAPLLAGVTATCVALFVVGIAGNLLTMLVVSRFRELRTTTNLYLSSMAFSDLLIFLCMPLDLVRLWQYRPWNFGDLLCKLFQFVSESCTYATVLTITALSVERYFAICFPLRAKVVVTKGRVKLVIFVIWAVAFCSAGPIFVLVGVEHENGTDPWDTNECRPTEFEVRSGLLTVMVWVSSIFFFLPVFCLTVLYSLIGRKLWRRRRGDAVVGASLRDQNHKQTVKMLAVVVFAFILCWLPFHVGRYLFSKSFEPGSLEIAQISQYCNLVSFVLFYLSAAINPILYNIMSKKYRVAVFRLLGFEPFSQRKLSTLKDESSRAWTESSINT
Procedure: (§2) BRET-based Gαq Dissociation & β-arr2 Recruitment Assays. TRUPATH Gα dissociation: Gαq/i1/i2/OA/12/13/sS^RLuc8 and Gγ8^GFP2 or Gγ9^GFP2 were transiently co-transfected with human 3×HA-GHSR1a^WT and untagged Gβ3 at a 1:1:1:1 ratio (100 μg each) into monolayers of HEK293/T cells along with 1.6 μg pcDNA3.1. The next morning, media (DMEM supplemented with 10% FBS and antibiotic/antimycotic) was exchanged and after 4-6 hours, cells were plated on white 96-well, clear-bottomed assay plates at a density of 40,000-50,000 cells/well in opti-MEM supplemented with 2% FBS and antibiotic/antimycotic. The next morning, opti-MEM was removed and cells were incubated with 80 μL HBSS supplemented with 20 mM HEPES (pH 7.4) for 4 hours. Cells were then treated with 10 μL of the luminescent substrate, coelenterazine 400a (5 μM final), for 5 minutes at room temperature prior to the addition of 10 μL of test compound. Five minutes after ligand application, luminescence was measured by a Mithras 940 plate reader over 30 minutes and the maximal response was utilized for generating all C/R curves.

hGHSR1a^A204E [4] = target: T6, hGHSR1a^A204E
Target sequence in this assay (Q92847 whole entry A204E): as above
Target sequence in this assay (P32121 whole entry partner): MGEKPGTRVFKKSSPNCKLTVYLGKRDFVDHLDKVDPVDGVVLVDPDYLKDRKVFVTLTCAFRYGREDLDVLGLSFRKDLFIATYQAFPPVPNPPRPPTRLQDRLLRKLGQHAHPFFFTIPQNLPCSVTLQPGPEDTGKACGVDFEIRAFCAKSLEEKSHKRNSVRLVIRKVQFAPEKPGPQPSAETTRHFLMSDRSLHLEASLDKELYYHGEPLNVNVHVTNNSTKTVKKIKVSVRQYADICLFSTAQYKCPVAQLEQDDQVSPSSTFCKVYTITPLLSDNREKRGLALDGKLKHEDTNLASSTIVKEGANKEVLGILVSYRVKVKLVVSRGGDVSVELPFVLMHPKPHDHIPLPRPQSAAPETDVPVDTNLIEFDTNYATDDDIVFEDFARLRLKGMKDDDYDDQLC
Procedure: β-arr2 recruitment: In agonist and antagonist assays of NanoBiT-based β-arr2 recruitment, hGHSR1a^WT-Lg^BiT and ^SmBiT-β^WT were transiently co-transfected at a 1:1 ratio (250 μg each) into monolayers of HEK293/T cells on 6-well plates along with 2 μg of pcDNA3.1. For assays employing the Ala204Glu variant, hGHSR1a^A204E-Lg^BiT was transfected at 2×hGHSR1a^WT-Lg^BiT, as performed for iCa^2+ assays with hGHSR1a^A204E described above. For GHSR1a-β-arr2 saturation assays, a fixed amount of hGHSR1a^WT-Lg^BiT cDNA (250 μg) was transfected with 0, 62.5 (1:0.25), 125 (1:0.5), 250 (1:1), 500 (1:2), or 1000 (1:4) μg of ^SmBiTβ-arr^WT. The morning after transfection, media was exchanged and after 4-6 hours, cells were then plated on white 96-well, clear-bottomed assay plates at a density of 45,000 cells/well in opti-MEM supplemented with 2% FBS and antibiotic/antimycotic. The following morning, opti-MEM was removed and cells were incubated with 70-80 μL HBSS supplemented with 20 mM HEPES (pH 7.4) for 4 hours. Cells were then treated with 10 μL of coelenterazine H (5 μM final) for 15-20 minutes at room temperature. Cells were then stimulated with 10 μL of test compounds and 2 minutes later, luminescence was measured over 5 minutes, which encompassed the peak β-arr2 recruitment signal.

human GHSR1a^WT (Gαq) = human GHSR1a^WT (Gαq) (Homo sapiens, UniProt Q92847); test: TRUPATH (BRET) Gαq dissociation
Procedure: as §2

hGHSR1a^A204E [5] = target: T6, hGHSR1a^A204E; test: iCa2+ at A204E variant; format: cell-based; set-up: expressed in transfected cells; host or cells: HEK293/T, transient
Procedure: as §1
Target sequence in this assay (Q92847 whole entry A204E): as the sequence (Q92847 whole entry A204E) above

hGHSR1a^WT = hGHSR1a^WT (Homo sapiens, UniProt Q92847); test: Fixed-cell ELISA GHSR1a internalization; format: cell-based; set-up: expressed in transfected cells; HEK293/S Gαq/11 KO and parental WT (iCa2+); conditions: 45 minutes at 37° C.
Procedure: Chemiluminescent Fixed-Cell ELISA. […] The next morning, media was removed and cells were serum starved with 90 μL of opti-MEM (containing no serum) for 2-3 hours at 37° C. Cells were then stimulated with 10× test compounds (diluted in serum-free opti-MEM) for 45 minutes at 37° C. in a humidified incubator. After 45 minutes, cells were fixed with 4% paraformaldehyde for 15 minutes (RT). Fixed cells were then washed three times with PBS (pH 7.4, Gibco) and blocked with fish gelatin in TBS (Rockland, Gilbertsville, PA) for 45 minutes. Cells were then incubated with a rabbit, horseradish peroxidase (HRP)-conjugated anti-HA antibody (1:2, 500; Novus Biologicals, Littleton, CO) for 1 hour (RT). […] The average luminescence was used and the data for each ligand were normalized its corresponding vehicle treatment conditions.

Sequence of human GHSR1a^WT (Gαq) (Q92847 whole entry): as the sequence (Q92847 whole entry A204E) above, with E204A counted along it
T3 sequence (Q92847 whole entry E197A): as the sequence (Q92847 whole entry A204E) above, with E197A, E204A counted along it
T1 sequence (Q92847 whole entry): as the sequence (Q92847 whole entry A204E) above, with E204A counted along it
Sequence of hGHSR1a^WT (Q92847 whole entry): as the sequence (Q92847 whole entry A204E) above, with E204A counted along it
T5 sequence (Q92847 whole entry R199A): as the sequence (Q92847 whole entry A204E) above, with R199A, E204A counted along it
T4 sequence (Q92847 whole entry N305A): as the sequence (Q92847 whole entry A204E) above, with E204A, N305A counted along it
T2 sequence (Q92847 whole entry D99A): as the sequence (Q92847 whole entry A204E) above, with D99A, E204A counted along it

SMILES: COc1ccc(C(=O)c2c(C(=O)NCCCN(C)C)oc3ccc(Cl)cc3c2=O)cc1OC [Example N8279, 6-Chloro-3-(3,4-dimethoxybenzoyl)-N-(3-(dimethylamino)propyl)-4-oxo-4H-chromene-2-carboxamide]
- endosomal transit, fold less potent than ghrelin (bBRET 2xFYVE) (hGHSR1a^WT-RLucII): 32 fold
- endosomal transit, less efficacious than ghrelin (bBRET 2xFYVE) (hGHSR1a^WT-RLucII): ~35%
- signaling at GHSR1a^D99A in words (hGHSR1a^D99A): abolished
- iCa2+ potency reduction at GHSR1a^E197A (GHSR1a^E197A [1]): ~3 fold
- Gαq dissociation potency reduction at GHSR1a^E197A (GHSR1a^E197A [2]): ~10 fold
- iCa2+ potency reduction at GHSR1a^N305A (GHSR1a^N305A): 6.5 fold
- potency at GHSR1a^R199A in words (GHSR1a^R199A): did not affect
- cocaine-induced behavioral sensitization in words (C57BL/6J mice): delayed the appearance of sensitization across days and abrogated the expression of sensitization following washout
- Gαq dissociation potency reduction at GHSR1a^A204E vs WT (hGHSR1a^A204E [3]): > 20 fold
- Emax (hGHSR1a^A204E [4]): ~35%
- BRET-Gαq potency, fold less potent than L585 (human GHSR1a^WT (Gαq)): 1.7 fold
- BRET-Gαq potency, fold less potent than ghrelin (human GHSR1a^WT (Gαq)): 6.1 fold
- Gαq activation efficacy in words (human GHSR1a^WT (Gαq); NanoBiT and BRET (TRUPATH) assays): full agonist
- iCa2+ efficacy at GHSR1a^A204E in words (hGHSR1a^A204E [5]): full agonism was retained
- iCa2+ potency reduction at GHSR1a^A204E vs WT (hGHSR1a^A204E [5]): 6.5 fold
- internalization efficacy reduction relative to ghrelin (ELISA) (hGHSR1a^WT): ~30%
- internalization potency reduction relative to ghrelin (ELISA) (hGHSR1a^WT): 24 fold

From US20240391928A1, “COMPOSITIONS FOR THE TREATMENT OF FOOD AND CHEMICAL ADDICTION AND METHODS OF MAKING AND USING SAME” (Duke University, priority 2021, published 2024)
